Laboratory results taken from patent US4218562A, “Antibiotic derivatives of XK-62-2” (Abbott Laboratories, priority 1978, dated 1980).
Converted amounts (≈) assume the structure as drawn.

Legend:
Assay type in all cases: cell-based
[1] = tested on: Krobsiella pneumoniae ATCC 10081; assay: Agar dilution MIC, pH 8.0: Krobsiella pneumoniae ATCC 10081; details: agar-dilution method, pH 8.0; read-out: Minimum Inhibitory Concentration
[2] = tested on: Sarcina lucca ATCC 9341; assay: Agar dilution MIC, pH 7.2: Sarcina lucca ATCC 9341; details: ATCC9341, pH 7.2, read-out: Minimum Inhibitory Concentration
[3] = tested on: Escherichia coli KY 8327; assay: Agar dilution MIC, pH 8.0: Escherichia coli KY 8327; details: for MIC: Escherichia coli, KY8327, agar-dilution method, pH 8.0, strain produces gentamicin adenyltransferase, read-out: Minimum Inhibitory Concentration; for anti-bacterial activity: comparison of MIC in Table 1, E. coli KY 8327
From the text: (§1) The former bacterium inactivates kanamycins and gentamicins by adenylation, and the latter inactivates gentamicins by acetylation.

[4] = tested on: Proteus vulgaris ATCC 6897; assay: Agar dilution MIC, pH 8.0: Proteus vulgaris ATCC 6897; details: ATCC6897, agar-dilution method, pH 8.0, read-out: Minimum Inhibitory Concentration
[5] = tested on: Escherichia coli KY 8348; assay: Agar dilution MIC, pH 8.0: Escherichia coli KY 8348; details: for anti-bacterial activity: comparison of MIC in Table 1, E. coli KY 8348; for MIC: Escherichia coli, KY8348, agar-dilution method, pH 8.0, strain produces gentamicin acetyltransferase Type I, read-out: Minimum Inhibitory Concentration
From the text: as §1

[6] = tested on: Pseudomonas aeruginosa BMH No. 1; assay: Agar dilution MIC, pH 7.2: Pseudomonas aeruginosa BMH No. 1; details: BMHNO.1, agar dilution method, pH 7.2, read-out: Minimum Inhibitory Concentration
[7] = tested on: Bacillus subtillus ATCC 6688; assay: Agar dilution MIC, pH 7.2: Bacillus subtillus ATCC 6688; details: ATCC6688, agar dilution method, pH 7.2, read-out: Minimum Inhibitory Concentration
[8] = tested on: Staphylococcus aureus ATCC 6538P; assay: Agar dilution MIC, pH 8.0: Staphylococcus aureus ATCC 6538P; details: ATCC6538P, agar-dilution method, pH 8.0, read-out: Minimum Inhibitory Concentration
[9] = tested on: strains of Escherichia coli having an R factor; assay: Anti-bacterial activity against Escherichia coli having an R factor; details: E. coli having an R factor which shows resistance to known aminoglycoside antibiotics
[10] = tested on: various bacteria having a resistance to at least one of gentamicin antibiotics and XK-62-2; assay: Antibacterial activity against resistant bacteria (summary of Table 2); details: bacteria producing gentamicin adenyltransferase and/or gentamicin acetyltransferase Type I and Type II; from Table 2
[11] = tested on: Escherichia coli ATCC 26; assay: Agar dilution MIC, pH 8.0: Escherichia coli ATCC 26; details: ATCC26, agar-dilution method, pH 8.0, read-out: Minimum Inhibitory Concentration
[12] = tested on: Salmanella typhosa ATCC 9992; assay: microbe, parasite or virus in culture; details: agar-dilution method, pH 8.0; read-out: Minimum Inhibitory Concentration
[13] = tested on: Pseudomanas aeruginosa BMH 1; assay: Agar dilution MIC, pH 8.0: Pseudomonas aeruginosa BMH 1; details: BMH1, agar-dilution method, pH 8.0, read-out: Minimum Inhibitory Concentration
[14] = tested on: Bacillus subtilis No. 10707; assay: Agar dilution MIC, pH 8.0: Bacillus subtilis No. 10707; details: NO.10707, agar-dilution method, pH 8.0, read-out: Minimum Inhibitory Concentration
[15] = tested on: Shigella seanei ATCC 9250; assay: microbe, parasite or virus in culture; details: ATCC9250, agar-dilution method, pH 8.0, read-out: Minimum Inhibitory Concentration

SMILES	MIC [1]	MIC [2]	MIC [3]	anti-bacterial activity [3]	MIC [4]	anti-bacterial activity [5]	MIC [6]	MIC [7]	MIC [8]	anti-bacterial activity [9]	antibacterial activity [10]	MIC [5]	MIC [11]	MIC [12]	MIC [13]	MIC [14]	MIC [15]
CNC[C@@H]1CC[C@@H](N)[C@@H](O[C@H]2[C@H](O)[C@@H](O[C@H]3OC[C@](C)(O)[C@H](NC)[C@H]3O)[C@H](NC(=O)[C@@H](O)CCN)C[C@@H]2N)O1 [Compound II, 1-N-[L-(-)-α-hydroxy-γ-aminobutyryl]XK-62-2]	0.008 µg/mL (≈ 0.0142 µM)	0.4 µg/mL (≈ 0.708 µM)	0.016 µg/mL (≈ 0.0283 µM)	strong anti-bacterial activity	0.065 µg/mL (≈ 0.115 µM)	strong anti-bacterial activity	1.56 µg/mL (≈ 2.76 µM)	0.1 µg/mL (≈ 0.177 µM)	0.016 µg/mL (≈ 0.0283 µM)	strong anti-bacterial activity	very strong antibacterial activity	–	–	–	–	–	–
CNC[C@@H]1CC[C@@H](NC(=O)[C@@H](O)CCN)[C@@H](O[C@H]2[C@H](O)[C@@H](O[C@H]3OC[C@](C)(O)[C@H](NC)[C@H]3O)[C@H](N)C[C@@H]2N)O1 [Compound I, 2'-N-[L-(-)-α-hydroxy-γ-aminobutyryl]XK-62-2]	0.1 µg/mL (≈ 0.177 µM)	–	3.1 µg/mL (≈ 5.49 µM)	strong anti-bacterial activity	0.39 µg/mL (≈ 0.691 µM)	strong anti-bacterial activity	–	–	0.05 µg/mL (≈ 0.0885 µM)	strong anti-bacterial activity	–	0.05 µg/mL (≈ 0.0885 µM)	0.39 µg/mL (≈ 0.691 µM)	0.2 µg/mL (≈ 0.354 µM)	25 µg/mL (≈ 44.3 µM)	0.05 µg/mL (≈ 0.0885 µM)	0.39 µg/mL (≈ 0.691 µM)
CNC[C@@H]1CC[C@@H](NC(=O)[C@@H](O)CCN)[C@@H](O[C@H]2[C@H](O)[C@@H](O[C@H]3OC[C@](C)(O)[C@H](NC)[C@H]3O)[C@H](N)C[C@@H]2NC(=O)[C@@H](O)CCN)O1 [IV, 3-N-2'-N-bis[L-(-)-α-hydroxy-γ-aminobutyryl]XK-62-2]	0.065 µg/mL (≈ 0.0976 µM)	–	0.26 µg/mL (≈ 0.391 µM)	strong anti-bacterial activity	0.521 µg/mL (≈ 0.783 µM)	strong anti-bacterial activity	–	–	0.13 µg/mL (≈ 0.195 µM)	strong anti-bacterial activity	–	0.13 µg/mL (≈ 0.195 µM)	0.13 µg/mL (≈ 0.195 µM)	0.13 µg/mL (≈ 0.195 µM)	8.34 µg/mL (≈ 12.5 µM)	0.016 µg/mL (≈ 0.024 µM)	0.26 µg/mL (≈ 0.391 µM)
